Values quoted from earlier work in PMC6437649 (Molecular Pharmaceutics, 2019).

In the case of C#C[C@]1(O)CC[C@H]2[C@@H]3CCC4=Cc5oncc5C[C@]4(C)[C@H]3CC[C@@]21C [danazol], the “log P” value is given as 4.9.
